PMC7997574, “Lead Optimization of Benzoxazolone Carboxamides as Orally Bioavailable and CNS Penetrant Acid Ceramidase Inhibitors” (Journal of Medicinal Chemistry, 2020)
In brackets after ≈: the same amount, converted by molar mass.

Experiments:
[1] = Aqueous kinetic solubility assay; type: physicochemical; details: PBS, pH 7.4
Protocol: The aqueous kinetic solubility was determined from a 10 mM MeCN stock solution of test compound in Phosphate-Buffered Saline (PBS) at pH 7.4. The study was performed by incubation of an aliquot of 10 mM MeCN stock solution in PBS (pH 7.4) at a target concentration of 250 μM. The incubation was carried out under shaking at 25 °C for 1 h followed by centrifugation at 21100 × g for 30 min. The supernatant was analyzed by UPLC/MS for the quantification of the dissolved compound (in μM) by UV at a specific wavelength (215 nm). […] The UPLC/MS analyses were performed on a Waters ACQUITY UPLC/MS system consisting of a single quadrupole detector (SQD) Mass Spectrometer (MS) equipped with an Electrospray Ionization (ESI) interface and a Photodiode Array Detector (PDA). The PDA range was 210–400 nm. ESI in positive mode was used in the mass scan range of 100–650 Da. The analyses were run on an ACQUITY UPLC BEH C18 column (50 × 2.1 mm ID, particle size 1.7 μm) with a VanGuard BEH C18 precolumn (5 × 2.1 mm ID, particle size 1.7 μm), using 10 mM NH4OAc in H2O at pH 5 adjusted with AcOH (A) and 10 mM NH4OAc in MeCN/H2O (95:5) at pH 5 (B) as the mobile phase. Values are reported as mean values of ≥2 experiments performed.

[2] = In vitro plasma stability study; type: in vitro ADME; details: mouse plasma; read-out: m-plasma t1/2
Protocol: Freshly prepared 10 mM MeCN stock solution of test compound was diluted 50-fold with DMSO/H2O (1:1) and incubated at 37 °C for 2 h with mouse plasma added in 5% DMSO (preheated at 37 °C for 10 min). The final concentration was 2 μM. At each time point (0, 5, 15, 30, 60, and 120 min), 50 μL of incubation mixture was diluted with 200 μL of cold MeCN spiked with 200 nM internal standard followed by centrifugation at 3300 × g for 20 min. The supernatant was further diluted with H2O (1:1) for analysis. The concentration of test compound was quantified by LC/MS/MS on a Waters ACQUITY UPLC/MS TQD system consisting of a TQD MS equipped with an ESI interface. The analyses were run on an ACQUITY UPLC BEH C18 (50 × 2.1 mm ID, particle size 1.7 μm) with a VanGuard BEH C18 precolumn (5 × 2.1 mm ID, particle size 1.7 μm) at 40 °C. For each compound, the appropriate mobile phase was chosen. ESI was applied in positive mode. The response factors, calculated on the basis of the internal standard peak area, were plotted over time. When possible, response vs time profiles were fitted with Prism (GraphPad Software, Inc., USA) to estimate compound t1/2 in plasma. Values are the mean of at least two independent experiments performed in two technical replicates.

[3] = In vitro microsomal stability study; type: in vitro ADME; details: mouse liver microsomes; for m-LM [% at 60 min]: % remaining at 60 min; for half-life at 4.6 μM / half-life at 1 h, 4.6 µM: pH 7.4, read-out: m-LM t1/2
Protocol: Freshly prepared 10 mM MeCN stock solution of test compound was preincubated at 37 °C for 15 min with mouse liver microsomes added in 0.1 M Tris HCl buffer (pH 7.4). The final concentration was 4.6 μM. After preincubation, the cofactors (NADPH, G6P, G6PDH, and MgCl2 predissolved in 0.1 M Tris HCl) were added to the incubation mixture, and the incubation was continued at 37 °C for 1 h. At each time point (0, 5, 15, 30, and 60 min), 30 μL of incubation mixture was diluted with 200 μL of cold MeCN spiked with 200 nM internal standard followed by centrifugation at 3300 × g for 15 min. The supernatant was further diluted with H2O (1:1) for analysis. The concentration of the test compound was quantified by LC/MS/MS on a Waters ACQUITY UPLC/MS TQD system consisting of a TQD MS equipped with an ESI interface. The analyses were run on an ACQUITY UPLC BEH C18 (50 × 2.1 mm ID, particle size 1.7 μm) with a VanGuard BEH C18 precolumn (5 × 2.1 mm ID, particle size 1.7 μm) at 40 °C. For each compound, the appropriate mobile phase was chosen. ESI was applied in positive mode. The percentage of test compound remaining at each time point relative to t = 0 was calculated. t1/2 was determined by a one-phase decay equation using a nonlinear regression of compound concentration vs time. Values are the mean of at least two independent experiments performed in two technical replicates.

AC = target: T1, AC (Homo sapiens, UniProt Q13510); test: Fluorogenic hAC assay on hAC-enriched lysate of HEK293 cells; type: biochemical; set-up: expressed in transfected cells; details: hAC expressed in HEK-293 cells; read-out: hAC IC50 (μM)±SD
T1 sequence (Q13510 22-395): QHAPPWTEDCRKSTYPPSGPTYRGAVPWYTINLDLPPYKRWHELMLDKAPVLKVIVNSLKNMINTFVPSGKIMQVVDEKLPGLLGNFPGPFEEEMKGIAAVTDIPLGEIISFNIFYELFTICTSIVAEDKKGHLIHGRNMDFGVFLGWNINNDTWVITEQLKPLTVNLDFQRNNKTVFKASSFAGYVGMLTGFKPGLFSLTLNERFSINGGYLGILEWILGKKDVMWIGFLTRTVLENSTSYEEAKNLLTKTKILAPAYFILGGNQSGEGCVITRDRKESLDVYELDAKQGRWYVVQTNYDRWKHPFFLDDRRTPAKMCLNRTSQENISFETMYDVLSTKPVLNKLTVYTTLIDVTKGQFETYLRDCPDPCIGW
Protocol: HEK293 cells stably expressing hAC were grown in Dulbecco’s modified Eagle medium (DMEM) containing 10% FBS, 1% glutamine, 1 mM sodium pyruvate, and 500 μg mL^–1 G418. Cells were harvested, and pellets were stored at −80 °C until lysosomal-enriched lysate preparation. Cells were suspended in 20 mM Tris HCl (pH 7.5) with 0.32 M sucrose, sonicated, and centrifuged at 800 × g for 30 min at 4 °C. Supernatants were then centrifuged at 12000 × g for 30 min at 4 °C. Pellets were resuspended in PBS (pH 7.4) and subjected to three freeze–thaw cycles at −80 °C. The suspension was finally centrifuged at 105000 × g for 1 h at 4 °C, and protein concentration was measured in the supernatant with the bicinchoninic acid based protein assay. This hAC-enriched preparation allowed us to further optimize the enzymatic assay and to use small amounts of lysate (2 μg per well) at a 5 μM substrate (Rbm14–12) around its KM (KM = 5.0 μM).
The assay was performed in Optiplate 96-well black plates, with each reaction well containing a mixture of 25 mM NaOAc buffer (pH 4.5) and a fixed amount of protein (2 μg) in a volume of 85 μL. After 10 min of preincubation with test compounds (diluted 20× from DMSO stock solutions at different concentrations), the fluorogenic probe was added (diluted 40× from EtOH stock solution, final concentration 5 μM). After 3 h of incubation at 37 °C, reactions were stopped with 50 μL of MeOH and 100 μL of a 2.5 mg mL^–1 NaIO4 fresh solution in 100 mM glycine/NaOH buffer (pH 10.6). The plates were further incubated for 2 h at 37 °C in the dark, and fluorescence intensities were measured at excitation/emission wavelengths of 355/460 nm. Negative control samples consisted of the same incubation mixture in the absence of protein-enriched extracts. Data were plotted as a function of compound concentrations. IC50 values were calculated by nonlinear regression analysis using GraphPad Prism 5 (GraphPad Software Inc., CA, USA) applying a standard slope curve fitting. The reported IC50 values are the mean of at least three independent experiments performed in three technical replicates.

solubility at 1 h [1] [µM]	half-life at 2 µM [2] [min]	m-LM [% at 60 min] [3]	half-life at 4.6 μM [3] [min]	IC50 (AC) [µM]	half-life at 1 h, 4.6 µM [3] [min]	half-life at 2 μM [2] [min]	Compound
150	60	70%	> 60	0.134 ± 0.014			Cl.O=C(NCCCCc1ccccc1)n1c(=O)oc2cc(C3CCNCC3)ccc21 [22d, 2-Oxo-N-(4-phenylbutyl)-6-(4-piperidyl)-1,3-benzoxazole-3-carboxamide Hydrochloride]
120 (≈ 48.9 µg/mL)	50			0.129 ± 0.008	40		CN1CCC(c2ccc3c(c2)oc(=O)n3C(=O)NCCCCc2ccccc2)CC1 [22e, 6-(1-Methyl-4-piperidyl)-2-oxo-N-(4-phenylbutyl)-1,3-benzoxazole-3-carboxamide]
198 (≈ 83.5 µg/mL)	50			0.092 ± 0.043	60		CCN1CCC(c2ccc3c(c2)oc(=O)n3C(=O)NCCCCc2ccccc2)CC1 [22f, 6-(1-Ethyl-4-piperidyl)-2-oxo-N-(4-phenylbutyl)-1,3-benzoxazole-3-carboxamide]
50 (≈ 21.8 µg/mL)	40			0.094 ± 0.042	60		CC(C)N1CCC(c2ccc3c(c2)oc(=O)n3C(=O)NCCCCc2ccccc2)CC1 [22g, 6-(1-Isopropyl-4-piperidyl)-2-oxo-N-(4-phenylbutyl)-1,3-benzoxazole-3-carboxamide]
< 1	30			0.064 ± 0.029	60		CC(=O)N1CCC(c2ccc3c(c2)oc(=O)n3C(=O)NCCCCc2ccccc2)CC1 [22i, 6-(1-Acetyl-4-piperidyl)-2-oxo-N-(4-phenylbutyl)-1,3-benzoxazole-3-carboxamide]

More lines, now with the values behind:

Compound	solubility at 1 h [1] [µM]	half-life at 2 µM [2] [min]	m-LM [% at 60 min] [3]	half-life at 4.6 μM [3] [min]	IC50 (AC) [µM]	half-life at 1 h, 4.6 µM [3] [min]	half-life at 2 μM [2] [min]
CC(C)CN1CCC(c2ccc3c(c2)oc(=O)n3C(=O)NCCCCc2ccccc2)CC1 [22h, 6-(1-Isobutyl-4-piperidyl)-2-oxo-N-(4-phenylbutyl)-1,3-benzoxazole-3-carboxamide]	< 1			60	0.12 ± 0.03		60
CN1CCC(c2ccc3c(c2)oc(=O)n3C(=O)NCCOCc2ccccc2)CC1 [22j, N-(2-Benzyloxyethyl)-6-(1-methyl-4-piperidyl)-2-oxo-1,3-benzoxazole-3-carboxamide]	73 (≈ 29.9 µg/mL)	40			0.215 ± 0.013	30	
CCCCCNC(=O)n1c(=O)oc2cc(C3CCN(C)CC3)ccc21 [22k, 6-(1-Methyl-4-piperidyl)-2-oxo-N-pentyl-1,3-benzoxazole-3-carboxamide]	240 (≈ 82.9 µg/mL)	75	>60 [60%]	> 60	0.396 ± 0.075		> 60
CN1CCC(c2ccc3c(c2)oc(=O)n3C(=O)NCCCCc2ccc(F)cc2)CC1 [22o, N-[4-(4-Fluorophenyl)butyl]-6-(1-methyl-4-piperidyl)-2-oxo-1,3-benzoxazole-3-carboxamide]	22 (≈ 9.36 µg/mL)	20			0.094 ± 0.03	30	
CN1CCC(c2cc3oc(=O)n(C(=O)NCCCCc4ccccc4)c3cc2F)CC1 [22p, 5-Fluoro-6-(1-methyl-4-piperidyl)-2-oxo-N-(4-phenylbutyl)-1,3-benzoxazole-3-carboxamide]	70 (≈ 29.8 µg/mL)	20	70%	> 60	0.024 ± 0.002		
CN1CCC(c2ccc3c(c2)oc(=O)n3C(=O)NCCCCc2ccccc2)CC1=O (stereo not drawn) [22q, 6-(1-Methyl-2-oxo-4-piperidyl)-2-oxo-N-(4-phenylbutyl)-1,3-benzoxazole-3-carboxamide]	20 (≈ 8.43 µg/mL)	36			0.105 ± 0.055	35	
O=C(NCCCCc1ccccc1)n1c(=O)oc2cc(C3CCN(CC(F)F)CC3)ccc21 [22r, 6-[1-(2,2-Difluoroethyl)-4-piperidyl]-2-oxo-N-(4-phenylbutyl)-1,3-benzoxazole-3-carboxamide]	< 1	50			0.095 ± 0.03	20	
Cl.O=C(NCCCCc1ccccc1)n1c(=O)oc2cc(N3CCNCC3)ccc21 [23e, 2-Oxo-N-(4-phenylbutyl)-6-piperazin-1-yl-1,3-benzoxazole-3-carboxamide Hydrochloride]	20	30			0.363 ± 0.18	45	
CN1CCN(c2ccc3c(c2)oc(=O)n3C(=O)NCCCCc2ccccc2)CC1 [23f, 6-(4-Methylpiperazin-1-yl)-2-oxo-N-(4-phenylbutyl)-1,3-benzoxazole-3-carboxamide]	< 1			< 5	0.116 ± 0.069		< 5
